Results published in patent US20200270237A1 (priority 2017, published 2020).
Where two headings read alike, the source gives them in different places.

What was measured:
[1] = target: Human α2δ-1 Subunit of Cav2.2 Calcium Channel (Homo sapiens, UniProt P54289); experiment: biochemical; type: binding
human μ-opioid receptor = human μ-opioid receptor (Homo sapiens, UniProt P35372); experiment: biochemical; type: binding
[2] = read-out: Ki (nM) alpha2delta Hum

Chain of human μ-opioid receptor (P35372 whole entry): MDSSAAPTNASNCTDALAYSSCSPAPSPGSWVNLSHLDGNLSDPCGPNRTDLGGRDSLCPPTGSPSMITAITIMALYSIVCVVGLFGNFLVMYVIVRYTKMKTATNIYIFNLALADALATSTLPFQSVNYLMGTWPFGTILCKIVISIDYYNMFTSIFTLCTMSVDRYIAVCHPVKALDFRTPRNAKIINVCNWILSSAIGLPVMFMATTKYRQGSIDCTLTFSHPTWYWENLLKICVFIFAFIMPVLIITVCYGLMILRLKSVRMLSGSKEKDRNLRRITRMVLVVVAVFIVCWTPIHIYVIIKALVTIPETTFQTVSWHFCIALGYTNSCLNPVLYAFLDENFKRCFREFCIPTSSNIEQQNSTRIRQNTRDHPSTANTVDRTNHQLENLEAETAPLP
Chain of Human α2δ-1 Subunit of Cav2.2 Calcium Channel (P54289 25-1103): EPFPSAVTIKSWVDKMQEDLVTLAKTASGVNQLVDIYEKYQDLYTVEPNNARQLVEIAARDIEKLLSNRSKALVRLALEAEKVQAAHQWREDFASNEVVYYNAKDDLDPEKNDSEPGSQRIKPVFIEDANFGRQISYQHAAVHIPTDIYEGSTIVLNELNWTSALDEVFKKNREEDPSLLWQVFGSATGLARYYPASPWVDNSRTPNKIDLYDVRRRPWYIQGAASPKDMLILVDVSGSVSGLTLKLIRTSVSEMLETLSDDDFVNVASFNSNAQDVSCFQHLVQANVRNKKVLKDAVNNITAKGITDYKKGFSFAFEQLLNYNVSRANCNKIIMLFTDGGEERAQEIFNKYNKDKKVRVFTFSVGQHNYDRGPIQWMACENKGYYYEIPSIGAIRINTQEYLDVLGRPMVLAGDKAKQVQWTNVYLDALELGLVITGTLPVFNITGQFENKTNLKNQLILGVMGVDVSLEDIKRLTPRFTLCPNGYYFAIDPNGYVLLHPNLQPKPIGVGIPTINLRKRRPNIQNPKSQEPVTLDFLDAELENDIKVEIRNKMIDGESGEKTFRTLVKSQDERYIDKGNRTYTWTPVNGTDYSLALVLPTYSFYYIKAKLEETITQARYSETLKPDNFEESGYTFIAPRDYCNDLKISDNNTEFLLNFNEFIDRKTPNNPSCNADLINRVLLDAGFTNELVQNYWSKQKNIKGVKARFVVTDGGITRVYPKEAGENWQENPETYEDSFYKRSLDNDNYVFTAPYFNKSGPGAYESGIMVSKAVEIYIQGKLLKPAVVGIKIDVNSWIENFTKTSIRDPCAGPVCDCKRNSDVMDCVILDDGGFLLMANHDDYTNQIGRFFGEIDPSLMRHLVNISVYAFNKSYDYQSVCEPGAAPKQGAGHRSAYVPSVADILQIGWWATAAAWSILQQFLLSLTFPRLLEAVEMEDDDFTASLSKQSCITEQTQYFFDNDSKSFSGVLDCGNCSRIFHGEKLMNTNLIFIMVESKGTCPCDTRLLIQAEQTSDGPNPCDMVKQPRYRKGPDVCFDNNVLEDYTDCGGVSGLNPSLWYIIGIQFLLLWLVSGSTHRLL

Ki [1, 2] [nM]	SMILES	Ki [1] [nM]	also measured
	CNCCC(OCc1cccc(N2CCc3ccccc3C2=O)c1)c1cccs1 (centres unmarked) [Example 32, 2-(3-((3-(Methylamino)-1-(thiophen-2-yl)propoxy)methyl)phenyl)-3,4-dihydroisoquinolin-1(2H)-one]	500 to 3000	Ki (human μ-opioid receptor): 0.1 to 0.5 µM
> 3000	CNCCC(OCc1cccc(N2CCNc3ccccc32)c1)c1ccccc1 (centres unmarked) [Example 47, 3-((3-(3,4-Dihydroquinoxalin-1(2H)-yl)benzyl)oxy)-N-methyl-3-phenylpropan-1-amine]		Ki (human μ-opioid receptor; read-out: MU Ki): > 1 µM
	CNCC[C@@H](OCc1cccc(CN2CCC(c3ccccc3)(N(C)C)CC2)c1)c1ccccc1 [Example 26, (R)-N,N-dimethyl-1-(3-((3-(methylamino)-1-phenylpropoxy)methyl)benzyl)-4-phenylpiperidin-4-amine]	500 to 3000	Ki (human μ-opioid receptor): < 0.1 µM
	CNCC[C@H](OCc1cccc(CN2CCC(c3ccccc3)(N(C)C)CC2)c1)c1ccccc1 [Example 27, (S)-N,N-dimethyl-1-(3-((3-(methylamino)-1-phenylpropoxy)methyl)benzyl)-4-phenylpiperidin-4-amine]	> 3000	Ki (human μ-opioid receptor): < 0.1 µM
> 3000	CNCC[C@H](Oc1cccc(CN2CCN([C@@]3(C(=O)c4ccccn4)CCOC(C)(C)C3)CC2)c1)c1cccs1 [Example 19, ((S)-2,2-dimethyl-4-(4-(3-((S)-3-(methylamino)-1-(thiophen-2-yl)propoxy)benzyl)piperazin-1-yl)tetrahydro-2H-pyran-4-yl)(pyridin-2-yl)methanone]		
	CNCCC(Oc1cccc(CN2CCC(c3ccccc3)(N(C)C)CC2)c1)c1cccs1 (centres unmarked) [Example 2, N,N-dimethyl-1-(3-(3-(methylamino)-1-(thiophen-2-yl)propoxy)benzyl)-4-phenylpiperidin-4-amine]	100 to 500	
	CNCCC(OCc1cccc(CN2CCC(c3ccccc3)(N(C)C)CC2)c1)c1ccccc1 (centres unmarked) [Example 25]	500 to 3000	Ki (human μ-opioid receptor): < 0.1 µM
500 to 3000	CNCCC(OCc1cccc(N2CCCCC2=O)c1)c1ccccc1 (centres unmarked) [Example 38, 1-(3-((3-(Methylamino)-1-phenylpropoxy)methyl)phenyl)piperidin-2-one]		
	CNCC[C@@H](Oc1cccc(CN2CCC(c3cccc(O)c3)(N(C)C)CC2)c1)c1cccs1 [Example 17, (R)-3-(4-(dimethylamino)-1-(3-(3-(methylamino)-1-(thiophen-2-yl)propoxy)benzyl)piperidin-4-yl)phenol]	100 to 500	
> 3000	CNCCC(Oc1cccc(C(=O)N2CCN(C)CC2)c1)c1cccs1 (centres unmarked) [Example 11, (3-(3-(Methylamino)-1-(thiophen-2-yl)propoxy)phenyl)(4-methylpiperazin-1-yl)methanone]		
500 to 3000	CC[C@]1(N2CCN(CCc3cccc(O[C@H](CCNC)c4ccccc4)c3)CC2)CCOC(C)(C)C1 [Example 12a, (R)-3-(3-(2-(4 ((S)-4-ethyl-2,2-dimethyltetrahydro-2H-pyran-4-yl)piperazin-1-yl)ethyl)phenoxy)-N-methyl-3-phenylpropan-1-amine]		
	CNCCC(Oc1ccc(CN2CCC(c3ccccc3)(N(C)C)CC2)cc1)c1cccs1 (centres unmarked) [Example 51, N,N-dimethyl-1-(4-(3-(methylamino)-1-(thiophen-2-yl)propoxy)benzyl)-4-phenylpiperidin-4-amine]	> 3000	
	CNCC[C@H](OCc1cccc(CN2CCC(c3cccc(O)c3)(N(C)C)CC2)c1)c1cccs1 [Example 23, (S)-3-(4-(dimethylamino)-1-(3-((3-(methylamino)-1-(thiophen-2-yl)propoxy)methyl)benzyl)piperidin-4-yl)phenol]	> 3000	
	CNCC[C@@H](OCc1cccc(CN2CCC(c3ccccc3)(N(C)C)CC2)c1)c1cccs1 [Example 22, (R)-N,N-dimethyl-1-(3-((3-(methylamino)-1-(thiophen-2-yl)propoxy)methyl)benzyl)-4-phenylpiperidin-4-amine]		Ki ([1]; Table 1, human α2δ-1 enriched membranes, 15 nM [3H]-Gabapentin, read-out: Ki (nM) alpha2delta Hum): 500 to 3000 nM; Ki ([1]; Table 2 (dual compounds), human α2δ-1 enriched membranes, 15 nM [3H]-Gabapentin, read-out: Ki (nM) alpha2delta Hum): 500 to 3000 nM
> 3000	CNCCC(Oc1cccc(C(=O)N2CCN(C)CC2)c1)c1ccccc1 (centres unmarked) [Example 9, (3-(3-(Methylamino)-1-phenylpropoxy)phenyl)(4-methylpiperazin-1-yl)methanone]		
> 3000	CNCCC(Oc1ccc(CN2CCN(C)CC2)cc1)c1cccs1 (centres unmarked) [Example 52, N-methyl-3-(4-((4-methylpiperazin-1-yl)methyl)phenoxy)-3-(thiophen-2-yl)propan-1-amine]		
> 3000	CNCCC(Oc1cccc(C(=O)N2CCCCC2)c1)c1ccccc1 (centres unmarked) [Example 8, (3-(3-(Methylamino)-1-phenylpropoxy)phenyl)(piperidin-1-yl)methanone]		
